# Assay results as given in patent publication US20040176357A1, “2 Methyl-thieno-benzodiazepine lyophilized formulation” (priority 2001, published 2004).
# Tests used:
# [1] = solubility in parenteral diluents; settings: parenteral diluents suitable for injection
# [2] = rate of absorption after parenteral versus oral administration; assay type: in vivo; settings: such as IM, versus oral administration of the same dose
# Protocol: Intramuscular injection is the preferred mode of delivery to the mammal being treated particularly in emergency situations. […] Preferably the lyophilized pharmaceutical formulation of this invention is diluted with aqueous solvent suitable for injection and a liquid unit dosage form prepared for administration to a mammal.
Compound,solubility in parenteral diluents [1],rate of absorption [2]
Cc1cc2c(s1)Nc1ccccc1N=C2N1CCN(C)CC1 [Form II],does not readily dissolve,
"Cc1cc2c(s1)Nc1ccccc1N=C2N1CCN(C)CC1 [olanzapine, 2-methyl-4-(4-methyl-1-piperazinyl)-10H-thieno[2,3-b][1,5]benzodiazepine]",relatively insoluble,more rapid
